According to patent publication US8618285B2, “Triazole derivatives” (Merck Patent GmbH, priority 2005, dated 2013):

Molecular target: T1, Recombinant human HSP90α (Homo sapiens, UniProt P07900)
T1 construct: host or cells: E. coli
Assay: radioligand filter binding test, competitive inhibition of [3H]17AAG binding to HSP90
Conditions: [3H]17AAG 0.08 μM, HSP90 1.5 μg/assay, 22° C., 30 min
From the text: The binding of geldanamycin or 17-allylamino-17-demethoxygeldanamycin (17AAG) to HSP90 and competitive inhibition thereof can be utilised in order to determine the inhibitory activity of the compounds according to the invention (Carreras et al. 2003, Chiosis et al. 2002).
In the specific case, a radioligand filter binding test is used. The radio-ligand used here is tritium-labelled 17-allylaminogeldanamycin, [3H]17AAG. This filter binding test allows a targeted search for inhibitors which interfere with the ATP binding site. Material
Recombinant human HSP90α (E. coli expressed, 95% purity); [3H]17AAG (17-allylaminogeldanamycin, [allylamino-2,3-^3H. Specific activity: 1.11×10^12 Bq/mmol (Moravek, MT-1717);
HEPES filter buffer (50 mM HEPES, pH 7.0, 5 mM MgCl2, BSA 0.01%) Multiscreen FB (1 μm) filter plate (Millipore, MAFBNOB 50).
The 96-well microtitre filter plates are firstly irrigated and coated with 0.1% of polyethylenimine.
The test is carried out under the following conditions: • Reaction temperature 22° C. • Reaction time: 30 min., shaking at 800 rpm • Test volume: 50 μl • Final concentrations: • 50 mM HEPES HCl, pH 7.0, 5 mM MgCl2, 0.01% (w/v) BSA • HSP90: 1.5 μg/assay • [3H]17AAG: 0.08 μM.
At the end of the reaction, the supernatant in the filter plate is removed by suction with the aid of a vacuum manifold (Multiscreen Separation System, Millipore), and the filter is washed twice.
The filter plates are then measured in a beta counter (Microbeta, Wallac) with scintillator (Microscint 20, Packard).
“% of control” is determined from the “counts per minutes” values and the IC50 value of a compound is calculated therefrom.

Question: Which IC50 does the source give for `CCCN(C)S(=O)(=O)c1cc(-c2nnc(O)n2-c2ccccc2CC)c(O)cc1O` [A34, 5-[2,4-dihydroxy-5-(N-propyl-N-methylsulfamoyl)phenyl]-4-(2-ethyl-phenyl)-3-hydroxy-4H-1,2,4-triazole] here?
Answer: 80 nM

Question: Which IC50 does the source give for `CCCN(C)S(=O)(=O)c1cc(-c2nnc(O)n2-c2cccc(F)c2)c(O)cc1O` [A39, 5-[2,4-dihydroxy-5-(N-propyl-N-methylsulfamoyl)phenyl]-4-(3-fluoro-phenyl)-3-hydroxy-4H-1,2,4-triazole] here?
Answer: 180 nM

Question: With `CCCN(C)S(=O)(=O)c1cc(-c2nnc(O)n2-c2cccc(Cl)c2)c(O)cc1O` [A38, 5-[2,4-dihydroxy-5-(N-propyl-N-methylsulfamoyl)phenyl]-4-(3-chloro-phenyl)-3-hydroxy-4H-1,2,4-triazole] as the compound, how does the IC50 read?
Answer: 330 nM

Question: For `CCCN(C)S(=O)(=O)c1cc(-c2nnc(O)n2-c2ccccc2Cl)c(O)cc1O` [A28, 5-[2,4-dihydroxy-5-(N-propyl-N-methylsulfamoyl)phenyl]-4-(2-chloro-phenyl)-3-hydroxy-4H-1,2,4-triazole], which IC50 is on record?
Answer: 160 nM

Question: `CN(Cc1ccccc1)S(=O)(=O)c1cc(-c2nnc(O)n2-c2ccccc2Cl)c(O)cc1O` [A32, 5-[2,4-dihydroxy-5-(N-benzyl-N-methylsulfamoyl)phenyl]-4-(2-chloro-phenyl)-3-hydroxy-4H-1,2,4-triazole] was tested. Which IC50 did it give?
Answer: 140 nM

Question: How did the IC50 turn out when `CCCCN(C)S(=O)(=O)c1cc(-c2nnc(O)n2-c2ccccc2Cl)c(O)cc1O` [A26, 5-[2,4-dihydroxy-5-(N-butyl-N-methylsulfamoyl)phenyl]-4-(2-chloro-phenyl)-3-hydroxy-4H-1,2,4-triazole] was run?
Answer: 120 nM

Question: With `CCCN(C)S(=O)(=O)c1cc(-c2nnc(O)n2-c2ccccc2C)c(O)cc1O` [A40, 5-[2,4-dihydroxy-5-(N-propyl-N-methylsulfamoyl)phenyl]-4-(2-methyl-phenyl)-3-hydroxy-4H-1,2,4-triazole] as the compound, how does the IC50 read?
Answer: 140 nM
